Target: T1, human FXR (NR1H4) (Homo sapiens, UniProt Q96RI1)
T1 construct: host or cells: CHO (Chinese hamster ovary) cells
T1 sequence (Q96RI1 1-486): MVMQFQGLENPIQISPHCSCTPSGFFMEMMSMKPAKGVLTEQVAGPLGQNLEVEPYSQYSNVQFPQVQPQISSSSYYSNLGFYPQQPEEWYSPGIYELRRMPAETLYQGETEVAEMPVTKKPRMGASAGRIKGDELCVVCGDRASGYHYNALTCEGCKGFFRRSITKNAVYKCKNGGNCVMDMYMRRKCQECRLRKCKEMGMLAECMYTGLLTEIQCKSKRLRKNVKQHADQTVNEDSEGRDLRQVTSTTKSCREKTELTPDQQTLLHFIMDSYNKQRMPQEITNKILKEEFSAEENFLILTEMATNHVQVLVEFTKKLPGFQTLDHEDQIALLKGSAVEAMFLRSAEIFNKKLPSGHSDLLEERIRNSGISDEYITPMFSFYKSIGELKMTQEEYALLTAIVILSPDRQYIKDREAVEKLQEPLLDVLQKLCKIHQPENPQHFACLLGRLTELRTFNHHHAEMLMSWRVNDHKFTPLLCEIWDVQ
Test: Human FXR (NR1H4) Assay (Gal4 promoter driven luciferase reporter transactivation, Indigo Bioscience kit IB00601)
Assay type: cell-based
Conditions: for EC50: Human FXR (NR1H4) reporter assay, CHO cells expressing human NR1H4, potency ranges; for Efficacy (%): efficacy normalized to CDCA set as 100%
Description: Human FXR (NR1H4) Assay Determination of a ligand mediated Gal4 promoter driven transactivation to quantify ligand binding mediated activation of FXR. FXR Reporter Assay kit purchased from Indigo Bioscience (Catalogue number: IB00601) to determine the potency and efficacy of compound developed by Enanta that can induce FXR activation. The principle application of this reporter assay system is to quantify functional activity of human FXR. The assay utilizes non-human mammalian cells, CHO (Chinese hamster ovary) cells engineered to express human NR1H4 protein (referred to as FXR). Reporter cells also incorporate the cDNA encoding beetle luciferase which catalyzes the substrates and yields photon emission. Luminescence intensity of the reaction is quantified using a plate-reading luminometer, Envision. Reporter Cells include the luciferase reporter gene functionally linked to an FXR responsive promoter. Thus, quantifying changes in luciferase expression in the treated reporter cells provides a sensitive surrogate measure of the changes in FXR activity. […] The assay is according to the manufacturer's instructions. […] Retrieve Reporter Cells from −80° C. storage. Perform a rapid thaw of the frozen cells by transferring a 10 ml volume of 37° C. cell recovery medium into the tube of frozen cells. Recap the tube of Reporter Cells and immediately place it in a 37° C. water bath for 5-10 minutes. Retrieve the tube of Reporter Cell Suspension from the water bath. Sanitize the outside surface of the tube with a 70% alcohol swab, and then transfer it into the cell culture hood. Dispense 90 μl of cell suspension into each well of the 96-well Assay Plate. Transfer the plate into 37° C. incubator, allowing the cells adherent to the bottom of the well. Dilute compounds in Dilution Plate (DP), and administrate to cells at Assay Plate (AP). DMSO content of the samples was kept at 0.2%. Cells were incubated for additional 22 hours before luciferase activities were measured. Thirty minutes before intending to quantify FXR activity, remove Detection Substrate and Detection Buffer from the refrigerator and place them in a low-light area so that they may equilibrate to room temperature. Remove the plate's lid and discard all media contents by ejecting it into an appropriate waste container. Gently tap the inverted plate onto a clean absorbent paper towel to remove residual droplets. Cells will remain tightly adhered to well bottoms. Add 100 μl of luciferase detection reagent to each well of the assay plate. Allow the assay plate to rest at room temperature for at least 5 minutes following the addition of LDR. Set the instrument (Envision) to perform a single 5 second “plate shake” prior to reading the first assay well. Read time may be 0.5 second (500 mSec) per well.

| Compound | EC50 [nM] | Efficacy (%) |
| --- | --- | --- |
| CC(C)c1onc(-c2c(Cl)cccc2Cl)c1COc1ccc(-c2ccc3c(NC(=O)NS(=O)(=O)c4ccccc4)cccc3c2)cc1 [Compound 16] | 100 to 1000 | 117 |
| CC(C)c1onc(-c2c(Cl)cccc2Cl)c1COc1ccc(-c2ccc3c(NC(=O)NS(=O)(=O)C4CC4)cccc3c2)cc1 [Compound 11] | 100 to 1000 | 1.2 |
| CC(C)c1onc(-c2c(Cl)cccc2Cl)c1COc1ccc(-c2ccc3c(C(=O)NS(=O)(=O)N(C)C)cccc3c2)cc1 [Compound 90] | 100 to 1000 | 1.3 |
| CC(C)c1onc(-c2c(Cl)cccc2Cl)c1COc1ccc(-c2ccc3c(C(=O)O)cccc3c2)cc1 [Compound (1), reference compound] | 100 to 1000 | 220 |
